Reference: patent publication US6420330B1, “Use of quaternary carboxylic acid alkanolamine ester salts as microbicide agents” (Cognis Deutschland GmbH, priority 1997, dated 2002)

Key:
Assay in all cases: DGHM suspension test, microbicidal activity
Type in all cases: cell-based
[1] = test system: Candida albicans ATCC 10231
Experimental: (§1) The microbicidal activity of the quanterary carboxylic acid alkanolamine ester salts used in accordance with the invention was tested against the following selected test germs:
(§2) The effectiveness of the compound to be tested was determined by the suspension test in accordance with the guidelines of the Deutsche Gesellschaft for Hygiene and Mikrobiologie (DGHM). Test solutions containing quatemary carboxylic acid alkanolamine ester salts in the quantities shown in the Tables of 50, 100, 200, 400 and 800 mg/l were prepared using water with a hardness of 17° dH and optionally isopropanol.
(§3) At room temperatures, quantities of 0.1 ml test germ suspension were pipetted into test tubes containing 10 ml of the test solutions described above and mixed. After various contact times of 5, 15, 30 and 60 minutes, 1 ml of material was taken from the test tubes by pipette and transferred to 9 ml inactivator solution (inactivators: 3.0% Tween, 0.3% lecithin, 0.1% histidine). After in activation for at least 5 and at most 30 minutes, the living germ count was determined by plating out onto casein peptone-soybean flour peptone (CaSo)-agar plates. Using a spiral plater, the inactivating mixture was directly plated out onto CaSo-agar. The samples were incubated for 24 to 72 hours at 37° C. and macroscopically evaluated for growth. The destruction time or the residual germ count was determined in this way. The germ count of an unchallenged water control is related to the germ count of the inactivated test solution taking the dilution into account. The higher the value, the better the microbicidal effect. The symbol < means that the logarithmic reductuon factor is below the indicated value or, in the case of the symbol >, above the indicated value. The abbreviation CU stands for “concentration used”.

[2] = test system: Pseudomonas aeruginosa ATCC 15442
Experimental: as §1, §2, §3

[3] = test system: Staphylococcus aureus ATCC 6538
Experimental: as §1, §2, §3

[4] = CU 50 mg/l, contact time 5 mins.
[5] = CU 50 mg/l, contact time 15 mins.
[6] = CU 50 mg/l, contact time 30 mins.
[7] = CU 50 mg/l, contact time 60 mins.
[8] = CU 100 mg/l, contact time 5 mins.
[9] = CU 100 mg/l, contact time 15 mins.
[10] = CU 100 mg/l, contact time 30 mins.
[11] = CU 100 mg/l, contact time 60 mins.
[12] = CU 200 mg/l, contact time 5 mins.
[13] = CU 200 mg/l, contact time 15 mins.
[14] = CU 200 mg/l, contact time 30 mins.
[15] = CU 200 mg/l, contact time 60 mins.
[16] = CU 400 mg/l, contact time 5 mins.
[17] = CU 400 mg/l, contact time 15 mins.
[18] = CU 400 mg/l, contact time 30 mins.
[19] = CU 400 mg/l, contact time 60 mins.
[20] = CU 800 mg/l, contact time 5 mins.
[21] = CU 800 mg/l, contact time 15 mins.
[22] = CU 800 mg/l, contact time 30 mins.
[23] = CU 800 mg/l, contact time 60 mins.

## CCCCCCCC(=O)OCC[N+](C)(CCO)CCOC(=O)CCCCCCC.COS(=O)(=O)[O-] [Example 7, Methyl triethanolammonium dicaprylic acid ester methosulfate]
[1]; [4]
  logarithmic reduction factor: >4.31
[1]; [5]
  logarithmic reduction factor: >4.18
[1]; [6]
  logarithmic reduction factor: >4.16
[1]; [7]
  logarithmic reduction factor: >4.27
[1]; [8]
  logarithmic reduction factor: >4.31
[1]; [9]
  logarithmic reduction factor: >4.18
[1]; [10]
  logarithmic reduction factor: >4.16
[1]; [11]
  logarithmic reduction factor: >4.27
[1]; [12]
  logarithmic reduction factor: >4.31
[1]; [13]
  logarithmic reduction factor: >4.18
[1]; [14]
  logarithmic reduction factor: >4.16
[1]; [15]
  logarithmic reduction factor: >4.27
[1]; [16]
  logarithmic reduction factor: >4.31
[1]; [17]
  logarithmic reduction factor: >4.18
[1]; [18]
  logarithmic reduction factor: >4.16
[1]; [19]
  logarithmic reduction factor: >4.27
[1]; [20]
  logarithmic reduction factor: >4.31
[1]; [21]
  logarithmic reduction factor: >4.18
[1]; [22]
  logarithmic reduction factor: >4.16
[1]; [23]
  logarithmic reduction factor: >4.27
[2]; [4]
  logarithmic reduction factor: <1.77
[2]; [5]
  logarithmic reduction factor: <1.72
[2]; [6]
  logarithmic reduction factor: <1.76
[2]; [7]
  logarithmic reduction factor: 3.65
[2]; [8]
  logarithmic reduction factor: 3.64
[2]; [9]
  logarithmic reduction factor: >5.72
[2]; [10]
  logarithmic reduction factor: >5.76
[2]; [11]
  logarithmic reduction factor: >5.86
[2]; [12]
  logarithmic reduction factor: 4.59
[2]; [13]
  logarithmic reduction factor: >5.72
[2]; [14]
  logarithmic reduction factor: 5.76
[2]; [15]
  logarithmic reduction factor: >5.86
[2]; [16]
  logarithmic reduction factor: 5.32
[2]; [17]
  logarithmic reduction factor: >5.72
[2]; [18]
  logarithmic reduction factor: >5.76
[2]; [19]
  logarithmic reduction factor: >5.86
[2]; [20]
  logarithmic reduction factor: >5.77
[2]; [21]
  logarithmic reduction factor: >5.72
[2]; [22]
  logarithmic reduction factor: >5.76
[2]; [23]
  logarithmic reduction factor: >5.86
[3]; [4]
  logarithmic reduction factor: >5.75
[3]; [5]
  logarithmic reduction factor: >5.53
[3]; [6]
  logarithmic reduction factor: >5.42
[3]; [7]
  logarithmic reduction factor: >5.69
[3]; [8]
  logarithmic reduction factor: >5.75
[3]; [9]
  logarithmic reduction factor: >5.53
[3]; [10]
  logarithmic reduction factor: >5.42
[3]; [11]
  logarithmic reduction factor: >5.69
[3]; [12]
  logarithmic reduction factor: >5.75
[3]; [13]
  logarithmic reduction factor: >5.53
[3]; [14]
  logarithmic reduction factor: >5.42
[3]; [15]
  logarithmic reduction factor: >5.69
[3]; [16]
  logarithmic reduction factor: >5.75
[3]; [17]
  logarithmic reduction factor: >5.53
[3]; [18]
  logarithmic reduction factor: >5.42
[3]; [19]
  logarithmic reduction factor: >5.69
[3]; [20]
  logarithmic reduction factor: >5.75
[3]; [21]
  logarithmic reduction factor: >5.53
[3]; [22]
  logarithmic reduction factor: >5.42
[3]; [23]
  logarithmic reduction factor: >5.69

## CCCCCCCCCC(=O)OCC[N+](C)(C)CCOC(=O)CCCCCCCCC.COS(=O)(=O)[O-] [Example 10, dimethyl diethanolammonium dicapric acid ester methosulfate]
[1]; [4]
  logarithmic reduction factor: 2.87
[1]; [5]
  logarithmic reduction factor: >4.84
[1]; [6]
  logarithmic reduction factor: >4.89
[1]; [7]
  logarithmic reduction factor: >4.80
[1]; [8]
  logarithmic reduction factor: 4.27
[1]; [9]
  logarithmic reduction factor: >4.84
[1]; [10]
  logarithmic reduction factor: >4.89
[1]; [11]
  logarithmic reduction factor: >4.80
[2]; [8]
  logarithmic reduction factor: 3.11
[2]; [9]
  logarithmic reduction factor: 3.48
[2]; [10]
  logarithmic reduction factor: 3.95
[2]; [11]
  logarithmic reduction factor: 4.84
[2]; [12]
  logarithmic reduction factor: 3.54
[2]; [13]
  logarithmic reduction factor: 4.51
[2]; [14]
  logarithmic reduction factor: 5.50
[2]; [15]
  logarithmic reduction factor: 5.44
[2]; [16]
  logarithmic reduction factor: 4.31
[2]; [17]
  logarithmic reduction factor: 5.04
[2]; [18]
  logarithmic reduction factor: 5.64
[2]; [19]
  logarithmic reduction factor: >5.79
[3]; [8]
  logarithmic reduction factor: >5.56
[3]; [9]
  logarithmic reduction factor: >5.55
[3]; [10]
  logarithmic reduction factor: >5.72
[3]; [11]
  logarithmic reduction factor: >5.69
[3]; [12]
  logarithmic reduction factor: >5.56
[3]; [13]
  logarithmic reduction factor: >5.55
[3]; [14]
  logarithmic reduction factor: >5.72
[3]; [15]
  logarithmic reduction factor: >5.69
[3]; [16]
  logarithmic reduction factor: >5.56
[3]; [17]
  logarithmic reduction factor: >5.55
[3]; [18]
  logarithmic reduction factor: >5.72
[3]; [19]
  logarithmic reduction factor: >5.69
